Data set [1] can be described thus: Titration assay of sodium salts with 5 M HCl (pKa / effective pKa). As for the experimental part:
Typically new structures that may be suitable as advanced pH-switch components are first assessed for their pKa value in normal saline. This entails preparing the sodium salt form of the structure and dissolving it at a concentration of 20 milliMolar in 15 ml of 0.15 Molar NaCl (deareated to remove CO2). […] A plot of pH versus volume of added HCl affords the effective pKa value. It is also desirable to carry out this same titration in methanol/water (1:1 by vol) in order to get an estimate of the pKa value independent of insolubility effects.
The compound in FIG. 12a was prepared by reacting camphoric anhydride with dimethylamine. The compound in FIG. 12b was prepared by reacting camphoric anhydride with ethylamine. The sodium salts of compounds shown in FIG. 12a (designed to form an internal acid-specific H-bond) and 12b (designed to form non-acid-specific H-bonds) were titrated in aqueous solution.
The two compounds in FIG. 15 were prepared by reacting the respective anhydrides with dimethylamine, and then the sodium salts titrated in methanol/water, 1:1 by volume—in order to preclude insolubility effects impacting the titration curve.
The methyl ester of isonipocotic acid was alkylated with bromopropane and then the resultant tertiary amine oxidized to the N-oxide with meta-Chlorobenzoylperoxide. Finally, the ester was cleaved with aqueous sodium hydroxide to give structure iii in FIG. 16b. This product in its sodium salt form was titrated in water.

For a further data set, the system named is tumors. The conditions noted are these: tumor-bearing mice; reduction of about 0.3 pH units in the tumors; cited from earlier work.

Molecules are shown by their SMILES.

For `CN(C)C(=O)C=CC(=O)O` [FIG. 14b], the “pKa value (mid-point of the transition between salt and acid)” value in data set [1] (sodium salt titrated with HCl in water / aqueous solution) was “below 3.0”.
In the case of `O=C(O)CCCc1ccc(N(CCCl)CCCl)cc1` [Chlorambucil], in the data set with tumors, the “improvement in tumor growth delay” value is reported as 1.7 fold.
In the case of `CCC[N+]1([O-])CCC(C(=O)O)CC1` (stereo not shown) [structure iii in FIG. 16b, N-oxide of N-propylisonipocotic acid], in data set [1] (sodium salt titrated in water), the “first derivative of titration plot, minimum attributed to N-oxide moiety (pH)” value is given as around 4.0 and the “first derivative of titration plot, other minimum (pH), attributed to internal low-barrier H-bond” value is on record as around 5.6.
